Consider 13 compounds from patent publication US9233979B2, “Compounds that are ERK inhibitors” (Merck Sharp & Dohme Corp., priority 2012, dated 2016).

Molecules are shown by their SMILES.

Sequence of phosphorylated active hERK2 enzyme (P28482 whole entry): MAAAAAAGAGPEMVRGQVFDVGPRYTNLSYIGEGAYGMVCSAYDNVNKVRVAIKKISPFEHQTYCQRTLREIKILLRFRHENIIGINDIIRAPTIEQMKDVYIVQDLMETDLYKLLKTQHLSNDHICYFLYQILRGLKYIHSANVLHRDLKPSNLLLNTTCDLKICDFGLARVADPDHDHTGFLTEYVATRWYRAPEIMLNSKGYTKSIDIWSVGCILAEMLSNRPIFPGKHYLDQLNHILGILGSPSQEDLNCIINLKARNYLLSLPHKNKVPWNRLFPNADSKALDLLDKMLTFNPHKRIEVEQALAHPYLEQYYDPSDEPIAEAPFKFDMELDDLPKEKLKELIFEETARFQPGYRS

The first test addresses phosphorylated active hERK2 enzyme (Homo sapiens (Human), UniProt P28482). The experiment in a line: Active Human ERK2 (hERK2) Activity Assay (IMAP-FP). The test is classed as biochemical. The note with it: Table 5, 0.5 nM hERK2, 30 μM ATP, 10 point titration, read-out: AERK2 IC50. An outline of the steps: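 IMAP detection beads in buffer with 24 mM NaCl stopped the reaction, and fluorescence polarization was read after 60 min binding.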
In the case of `C[C@@H](NC(=O)Nc1cc2[nH]nc(N3CCN(C)CC3)c2cn1)c1ccccc1` [Example 13, 1-[3-(4-methylpiperazin-1-yl)-1H-pyrazolo[4,3-c]pyridin-6-yl]-3-[(1R)-1-phenylethyl]urea], the IC50 – broadly, the concentration that inhibits the measured activity by half – turned out to be 28 nM.

The test is the same for the next values; noted with them: Table 6, 0.5 nM hERK2, 30 μM ATP, 10 point titration, read-out: AERK2 IC50.
As for `C[C@@H](NC(=O)Nc1cc2[nH]nc(NC(=O)N[C@H](C)c3ccc(Cl)nc3)c2cn1)c1ccc(Cl)nc1` [Example 312, N′,N″′-1H-pyrazolo[4,3-c]pyridine-3,6-diylbis{1-[(1R)-1-(6-chloropyridin-3-yl)ethyl]urea}], the IC50 came to 134 nM.
The same measure, in the same setting: in the case of `CC(C)(O)[C@@H](NC(=O)Nc1cc2[nH]nc(N3CCC3)c2cn1)c1ccc(F)cc1` [Example 100, 1-(3-azetidin-1-yl-1H-pyrazolo[4,3-c]-pyridin-6-yl)-3-[(1S)-1-(4-fluorophenyl)-2-hydroxy-2-methylpropyl]urea] it was 1.1 nM; in that of `CCNc1n[nH]c2cc(NC(=O)N[C@H](C)c3ccc(Cl)c(Cl)c3)ncc12` [Example 248, 1-[(1R)-1-(3,4-dichlorophenyl)ethyl]-3-[3-(ethyl-amino)-1H-pyrazolo[4,3-c]-pyridin-6-yl]urea], 3.2 nM.
Still for that read-out and setting: in the case of `CC(C)(O)[C@@H](NC(=O)Nc1cc2[nH]nc(N3CC4CC3CO4)c2cn1)c1ccccc1` (stereo partly drawn) [Example 447, 1-[(1S)-2-hydroxy-2-methyl-1-phenylpropyl]-3-[3-(2-oxa-5-azabicyclo[2.2.1]-hept-5-yl)-1H-pyrazolo[4,3-c]-pyridin-6-yl]urea] it was 1.5 nM; in that of `C[C@@H](NC(=O)Nc1cc2[nH]nc(NC3CNC3)c2cn1)c1ccccc1` [Example 168, 1-[3-(azetidin-3-ylamino)-1H-pyrazolo[4,3-c]-pyridin-6-yl]-3-[(1R)-1-phenylethyl]urea], 31.7 nM; in that of `CCNc1n[nH]c2cc(NC(=O)N[C@@H](c3ccccc3)C(C)(C)OC)ncc12` [Example 431, 1-[3-(ethylamino)-1H-pyrazolo[4,3-c]pyridin-6-yl]-3-[(1S)-2-methoxy-2-methyl-1-phenylpropyl]urea], 0.5 nM.
Turning to `COC[C@@H](NC(=O)Nc1cc2[nH]nc(NCC3CC(C(C)(C)O)C3)c2cn1)c1ccccc1` (stereo partly drawn) [Example 183, 1-[3-({[3-(1-hydroxy-1-methylethyl)-cyclobutyl]methyl}amino)-1H-pyrazolo[4,3-c]pyridin-6-yl]-3-[(1S)-2-methoxy-1-phenylethyl]urea], the IC50 came out at 3.6 nM.
Same read-out and setting: in the case of `CCNc1n[nH]c2cc(NC(=O)NC(C)c3ccc(F)nc3)ncc12` (stereo not shown) [Example 282, 1-[3-(ethylamino)-1H-pyrazolo[4,3-c]pyridin-6-yl]-3-[1-(6-fluoropyridin-3-yl)ethyl]urea] it was 34.2 nM; in that of `Cc1cc([C@@H](C)NC(=O)Nc2cc3[nH]nc(N)c3cn2)ccc1Cl` [Example 276, 1-(3-amino-1H-pyrazolo[4,3-c]pyridin-6-yl)-3-[(1R)-1-(4-chloro-3-methylphenyl)-ethyl]urea], 2.3 nM; in that of `CC(CNC(=O)Nc1cc2[nH]nc(N)c2cn1)c1ccccc1` (stereo not shown) [Example 254, 1-(3-amino-1H-pyrazolo[4,3-c]pyridin-6-yl)-3-(2-phenyl-propyl)urea], 57.7 nM.
On the same count and under the same terms, in the case of `C[C@@H](NC(=O)Nc1cc2[nH]nc(N[C@H](C)c3ccccn3)c2cn1)c1ccccc1` [Example 87, 1-[(1R)-1-phenylethyl]-3-(3-{[(1R)-1-pyridin-2-ylethyl]amino}-1H-pyrazolo[4,3-c]-pyridin-6-yl)urea] it was 13.4 nM; in that of `C[C@@H](O)[C@@H](NC(=O)Nc1cc2[nH]nc(N3CCC(F)(F)CC3)c2cn1)c1ccc(F)cc1` [Example 365, 1-[3-(4,4-difluoropiperidin-1-yl)-1H-pyrazolo[4,3-c]pyridin-6-yl]-3-[(1S,2R)-1-(4-fluorophenyl)-2-hydroxypropyl]urea], 0.9 nM.
